How the values were obtained:
Assay in all cases: relative viability (nuclei count vs DMSO), 5 days (fraction); higher = more cells survive
BAM7 + OSI-027 = compound: CCOC1=CC=CC=C1N=NC2=C(NN(C2=O)C3=NC(=CS3)C4=CC=CC=C4)C [BAM7] + COc1cccc2cc(-c3nc([C@H]4CC[C@H](C(=O)O)CC4)n4ncnc(N)c34)[nH]c12 [OSI-027] (partner 0.5 µM)
How it was run: (§1)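 A single step with final 0.05% Triton X-100, 1% formaldehyde and 1 ug/ml Hoechst fixed the cells and stained nuclei 5 days after treatment. Lung cancer cell lines in 1536-well plates had been treated by pin tool the day after seeding with one drug alone or a fixed anchor-drug dose plus five library-drug doses (not always all listed) in √10 steps, and nuclei were counted on 4× images. Relative viability is the ratio of nuclei in treated wells to nuclei in vehicle wells, taken as the median of duplicate plates.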

[1] = compound: CCn1c(-c2nonc2N)nc2c(C#CC(C)(C)O)ncc(OC[C@H]3CCCNC3)c21 + CS(=O)(=O)CCNCc1ccc(-c2ccc3ncnc(Nc4ccc(OCc5cccc(F)c5)c(Cl)c4)c3c2)o1 [Lapatinib] (partner 2 µM)
How it was run: as §1

[2] = compound: CCn1c(-c2nonc2N)nc2c(C#CC(C)(C)O)ncc(OC[C@H]3CCCNC3)c21 + NC(=O)Nc1cc(-c2cccc(F)c2)sc1C(=O)N[C@H]1CCCNC1 [AZD7762] (partner 0.2 µM)
How it was run: as §1

[3] = compound: CCn1c(-c2nonc2N)nc2c(C#CC(C)(C)O)ncc(OC[C@H]3CCCNC3)c21 + CCNC(=O)c1noc(-c2cc(C(C)C)c(O)cc2O)c1-c1ccc(CN2CCOCC2)cc1 [Luminespib] (partner 0.01 µM)
How it was run: as §1

Cell Line | relative viability (BAM7 + OSI-027; first compound 0.5 µM) | relative viability (BAM7 + OSI-027; first compound 5 µM) | relative viability (BAM7 + OSI-027; first compound 15.81 µM) | relative viability (BAM7 + OSI-027; first compound 50 µM) | relative viability ([1]; first compound 0.01 µM) | relative viability ([1]; first compound 0.03162 µM) | relative viability ([1]; first compound 0.1 µM) | relative viability ([1]; first compound 0.3162 µM) | relative viability ([1]; first compound 1 µM) | relative viability ([2]; first compound 0.01 µM) | relative viability ([2]; first compound 0.03162 µM) | relative viability ([2]; first compound 0.1 µM) | relative viability ([2]; first compound 0.3162 µM) | relative viability ([2]; first compound 1 µM) | relative viability ([3]; first compound 0.01 µM) | relative viability ([3]; first compound 0.03162 µM) | relative viability ([3]; first compound 0.1 µM) | relative viability ([3]; first compound 0.3162 µM) | relative viability ([3]; first compound 1 µM)
HCC-366 | 0.879 | 0.839 | 0.729 | 0.784 | 0.967 | 1.02 | 0.953 | 1.03 | 1.09 | 0.332 | 0.239 | 0.287 | 0.273 | 0.241 | – | – | – | – | –
IA-LM | – | – | – | – | 0.713 | 0.922 | 0.887 | 0.532 | 0.289 | – | – | – | – | – | – | – | – | – | –
LCLC-103H | 0.366 | 0.505 | 0.504 | 0.537 | – | – | – | – | – | 0.752 | 0.862 | 0.743 | 0.668 | 0.696 | 0.936 | 0.912 | 0.94 | 0.735 | 0.863
NCI-H441 | 0.578 | 0.574 | 0.639 | 0.694 | – | – | – | – | – | 1.11 | 1.17 | 1 | 0.988 | 1.1 | 0.434 | 0.312 | 0.349 | 0.379 | 0.367
NCI-H520 | 0.305 | 0.263 | 0.293 | 0.356 | 0.923 | 0.952 | 0.727 | 0.454 | 0.425 | – | – | – | – | – | 0.188 | 0.222 | 0.188 | 0.238 | 0.182
NCI-H522 | 0.976 | 0.744 | 0.687 | 0.831 | – | – | – | – | – | 0.726 | 0.763 | 0.838 | 0.686 | 0.772 | 0.929 | 1.19 | 1.14 | 0.604 | 1.2
NCI-H661 | 0.662 | 0.704 | 0.761 | 0.686 | 0.505 | 0.539 | 0.249 | 0.502 | 0.489 | – | – | – | – | – | 0.89 | 0.95 | 0.947 | 0.965 | 0.995
NCI-H1299 | – | – | – | – | 0.927 | 0.967 | 0.998 | 0.947 | 0.982 | – | – | – | – | – | – | – | – | – | –
NCI-H1563 | 0.729 | 0.721 | 0.763 | 0.791 | 0.93 | 0.94 | 0.924 | 0.926 | 0.781 | – | – | – | – | – | 0.466 | 0.641 | 0.5 | 0.463 | 0.505
NCI-H1648 | 0.275 | 0.282 | – | 0.283 | – | – | – | – | – | 0.601 | 0.728 | 0.615 | 0.686 | 0.673 | – | – | – | – | –
NCI-H1650 | 0.542 | 0.512 | 0.498 | 0.73 | 0.758 | 0.864 | 0.708 | 0.725 | 0.578 | – | – | – | – | – | 0.187 | 0.202 | 0.182 | 0.199 | 0.206
NCI-H1703 | – | – | – | – | 0.998 | 1.23 | 1.05 | 0.739 | 0.662 | – | 0.123 | – | 0.0983 | 0.113 | – | – | – | – | –
NCI-H2009 | 0.68 | 0.758 | 0.581 | 0.689 | 0.974 | 1.03 | 1.05 | 1.02 | 0.905 | – | – | – | – | – | 1.07 | 0.981 | 1.06 | 0.986 | 0.983
NCI-H2023 | 0.357 | 0.347 | 0.297 | 0.506 | 0.74 | 0.792 | 0.769 | 0.689 | 0.953 | – | – | – | – | – | 0.636 | 0.981 | 0.664 | 0.67 | 0.498
NCI-H2228 | 0.716 | 0.545 | 0.593 | 0.594 | 1.27 | 1.09 | 1.02 | 0.755 | 0.729 | – | – | – | – | – | 0.0991 | 0.159 | 0.145 | 0.113 | 0.123
NCI-H2342 | 0.584 | 0.587 | 0.604 | 0.566 | – | – | – | – | – | 0.444 | 0.482 | 0.498 | 0.534 | 0.455 | 0.91 | 0.678 | 0.67 | 0.625 | 0.757
SK-LU-1 | 0.33 | 0.362 | 0.345 | 0.343 | 1.02 | 0.907 | 0.85 | 0.894 | 0.676 | – | – | – | – | – | 0.22 | 0.2 | 0.211 | 0.22 | 0.215
SK-MES-1 | 0.573 | 0.549 | 0.545 | 0.663 | 0.46 | 0.425 | 0.507 | 0.424 | 0.406 | – | – | – | – | – | 0.907 | 0.904 | 0.674 | 0.712 | 0.743
SW 900 | 0.194 | 0.539 | 0.545 | 0.609 | – | – | – | – | – | 0.656 | 0.659 | 0.712 | 0.575 | 0.56 | 0.189 | 0.185 | 0.18 | 0.16 | 0.162
SW 1573 | 0.753 | 0.708 | 0.591 | 0.711 | 1.1 | 1 | 1.02 | 0.869 | 0.946 | – | – | – | – | – | 0.215 | 0.563 | 0.178 | 0.584 | 0.342
UMC-11 | 0.465 | 0.461 | 0.461 | 0.487 | 1.08 | 0.987 | 0.952 | 0.818 | 1.08 | – | – | – | – | – | 0.97 | 0.922 | 0.991 | 0.956 | 1
